From ChEMBL document CHEMBL1201862, “PubChem BioAssay data set” (2004)
Several values for one entry are separate records, joined by “and”; a condition that tells them apart may be missing. Equal entries are not always repeated. Blank lines part the entries; values can stand above or below the molecule they belong to. Activity calls are given as the source filed them.

Experiments:
Caspase-6 = Caspase-6 (Homo sapiens, UniProt P55212); assay: human caspase-6 inhibitors, dose response, biochemical, VEID-R110 fluorescence, cherry-pick (AID 720632)
Caspase-6, sequence (P55212 24-179 limits assumed): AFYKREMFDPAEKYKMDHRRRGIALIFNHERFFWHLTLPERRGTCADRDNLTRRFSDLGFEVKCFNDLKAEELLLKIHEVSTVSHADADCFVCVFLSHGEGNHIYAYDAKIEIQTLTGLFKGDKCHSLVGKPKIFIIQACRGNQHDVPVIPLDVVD
Caspase-6, sequence (P55212 194-293 limits assumed): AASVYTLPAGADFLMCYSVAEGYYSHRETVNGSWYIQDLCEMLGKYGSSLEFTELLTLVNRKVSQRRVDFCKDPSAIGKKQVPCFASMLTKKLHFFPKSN

HEK293 [1] = assay: cells; assay type: functional, cell-based; conditions: Homo sapiens
[2] = biological target: Nucleotide-binding oligomerization domain-containing protein 2 (Homo sapiens, UniProt Q9HC29); assay: NOD2 signaling inhibitors, cell-based, luminescence, uHTS, HEK293 (AID 1566); assay type: functional
Nucleotide-binding oligomerization domain-containing protein 2, sequence (Q9HC29 whole entry, the tested form may be a part): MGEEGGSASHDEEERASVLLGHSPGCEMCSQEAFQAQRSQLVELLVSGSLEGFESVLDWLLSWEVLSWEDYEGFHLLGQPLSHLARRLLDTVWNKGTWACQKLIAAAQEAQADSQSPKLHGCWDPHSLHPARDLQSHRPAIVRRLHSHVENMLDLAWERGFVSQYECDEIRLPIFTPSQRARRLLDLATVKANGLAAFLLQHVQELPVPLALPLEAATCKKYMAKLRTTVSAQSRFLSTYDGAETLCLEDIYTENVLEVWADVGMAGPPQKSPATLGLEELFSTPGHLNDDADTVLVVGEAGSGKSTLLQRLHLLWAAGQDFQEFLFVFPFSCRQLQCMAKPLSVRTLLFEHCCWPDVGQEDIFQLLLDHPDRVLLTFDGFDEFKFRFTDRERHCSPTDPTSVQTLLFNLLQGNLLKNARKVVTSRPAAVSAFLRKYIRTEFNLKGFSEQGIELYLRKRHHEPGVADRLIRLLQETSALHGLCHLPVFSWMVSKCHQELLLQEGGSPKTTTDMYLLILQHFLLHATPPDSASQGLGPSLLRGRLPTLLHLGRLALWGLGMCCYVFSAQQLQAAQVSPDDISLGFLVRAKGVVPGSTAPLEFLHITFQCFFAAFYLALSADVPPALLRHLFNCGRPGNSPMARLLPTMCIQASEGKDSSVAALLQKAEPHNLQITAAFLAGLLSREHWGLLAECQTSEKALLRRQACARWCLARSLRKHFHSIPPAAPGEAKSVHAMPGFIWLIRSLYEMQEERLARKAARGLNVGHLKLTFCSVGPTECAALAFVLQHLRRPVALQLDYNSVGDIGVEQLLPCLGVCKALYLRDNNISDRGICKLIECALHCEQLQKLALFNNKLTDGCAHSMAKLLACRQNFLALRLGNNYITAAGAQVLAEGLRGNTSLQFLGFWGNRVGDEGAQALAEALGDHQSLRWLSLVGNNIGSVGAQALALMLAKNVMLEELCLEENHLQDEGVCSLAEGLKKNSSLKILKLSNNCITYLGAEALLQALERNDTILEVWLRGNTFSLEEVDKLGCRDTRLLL

Estrogen receptor = biological target: T1, Estrogen receptor (Homo sapiens, UniProt P03372);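 further: potency for inhibiting coactivator peptide recruitment to the receptor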
T1 sequence (P03372 whole entry): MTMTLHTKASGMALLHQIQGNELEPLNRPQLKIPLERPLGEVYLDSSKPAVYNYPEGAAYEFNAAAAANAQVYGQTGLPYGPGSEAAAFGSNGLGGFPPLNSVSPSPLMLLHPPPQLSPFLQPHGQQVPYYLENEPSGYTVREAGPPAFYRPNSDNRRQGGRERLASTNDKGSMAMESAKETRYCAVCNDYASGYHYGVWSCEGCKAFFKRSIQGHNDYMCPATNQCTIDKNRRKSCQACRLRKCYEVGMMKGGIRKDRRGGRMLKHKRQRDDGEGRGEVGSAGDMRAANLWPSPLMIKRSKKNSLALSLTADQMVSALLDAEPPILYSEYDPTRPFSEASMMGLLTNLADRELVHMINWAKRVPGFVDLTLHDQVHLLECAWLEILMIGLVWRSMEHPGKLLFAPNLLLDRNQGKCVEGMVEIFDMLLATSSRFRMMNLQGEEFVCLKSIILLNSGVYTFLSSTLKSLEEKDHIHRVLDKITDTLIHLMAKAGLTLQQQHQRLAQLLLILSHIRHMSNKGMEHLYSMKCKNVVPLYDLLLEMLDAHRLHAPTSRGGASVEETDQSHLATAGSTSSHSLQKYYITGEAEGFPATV

[3] = CEM21 cell cytotoxicity, dose response, cytotoxicity control, plate reader, dry powder (AID 687026); assay type: functional, cell-based
[4] = ZM109 Env clade C HIV-1 fusion inhibitors, dose response, HeLa effector, CEM target cells, luciferase, cherry-pick (AID 652058); assay type: functional, cell-based
[5] = off-target signal loss in HeLa-CEM21 co-culture – HeLa F-luc CTL cells, cherry-picked, counter-screen for HIV-1 Env fusion inhibitor project, dose response (AID 652040); assay type: functional, cell-based;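 further: potency for signal decrease marking cytotoxic or nonspecific inhibition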
[6] = HIV Env cell-cell fusion inhibitors, dose response, HIV entry, plate reader, dry powder (AID 687023); assay type: functional, cell-based
HEK293 [7] = assay: NOD2 signaling inhibitors in MDP-stimulated cells, cell-based, uHTS, luminescence (AID 2001); assay type: functional; conditions: Homo sapiens
[8] = inhibitors of HIV Env-driven cell fusion, dose response, cherry-pick (AID 652057); assay type: functional, cell-based
HEK293 [9] = assay: cells; assay type: functional, cell-based; conditions: Homo sapiens; remark: listed apart in the source
[10] = inhibitors of clade B AD8 Env fusion, dose response, cell-based, cherry-pick (AID 652062); assay type: functional;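 further: luciferase signal from cell-cell fusion driven by HIV-1 clade B AD8 Env; potency is for inhibitors of fusion seen as a drop in luminescence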
HEK293 [11] = assay: cells; assay type: functional, cell-based; conditions: Homo sapiens; remark: listed apart in the source
HEK293 [12] = assay: NOD1 signaling inhibitors, primary screen, cell-based, luminescence, uHTS (AID 1578); assay type: functional; conditions: Homo sapiens
[13] = biological target: NAD-dependent protein deacylase sirtuin-5, mitochondrial (Homo sapiens, UniProt Q9NXA8); assay: SIRT5 desuccinylase inhibitors, dose response, biochemical, fluorescence imaging, cherry-pick, set 5 (AID 720591);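 further: desuccinylation of succinyl peptide AMC substrate read as fluorescence after trypsin release; potency of inhibitors that lower fluorescence and may act on trypsin instead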
NAD-dependent protein deacylase sirtuin-5, mitochondrial, sequence (Q9NXA8 whole entry): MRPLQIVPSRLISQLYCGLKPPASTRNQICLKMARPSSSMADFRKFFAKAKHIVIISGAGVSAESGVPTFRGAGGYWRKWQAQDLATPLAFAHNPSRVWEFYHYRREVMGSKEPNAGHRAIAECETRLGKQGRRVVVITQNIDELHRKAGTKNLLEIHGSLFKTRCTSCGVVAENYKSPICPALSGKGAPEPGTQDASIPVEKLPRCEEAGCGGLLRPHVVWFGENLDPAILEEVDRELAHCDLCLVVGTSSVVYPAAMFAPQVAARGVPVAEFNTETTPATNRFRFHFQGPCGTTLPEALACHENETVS

[14] = HEK293 cell cytotoxicity, dose response, cytotoxicity control, dry powder samples (AID 720567); assay type: functional, cell-based
[15] = cytotoxicity in HEK-293T cells, dose response, cytotoxicity control for TCR NF-kB inhibitor project, luminescence, T-cell screen hits (AID 489026); assay type: functional, cell-based;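 further: cells exposed to compound about 14 hours before the viability readout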
[16] = Inhibition of Plasmodium falciparum NF54 Measured in Cell-Based System Using Plate Reader - 2138-11_Inhibitor_Dose_CherryPick_Activity.; assay type: functional
[17] = T. b. rhodesiense proliferation inhibition, dose response, STIB900 strain, plate reader, cherry pick (AID 651893); assay type: functional, cell-based; conditions: Trypanosoma brucei
[18] = Inhibition of T. cruzi Tulahuen strain amastigotes in L-6 muscle cells Measured in Cell-Based and Microorganism Combination System Using Plate Reader - 2138-03_Inhibitor_Dose_CherryPick_Activity.; assay type: functional; conditions: Rattus norvegicus, L6
[19] = growth inhibition of intracellular T. cruzi, dose response, cell-based, plate reader, dry powder samples (AID 651845); assay type: functional
[20] = intracellular Trypanosoma cruzi inhibitors in host cells – cell-based, plate reader, cherry-pick samples, set 3, dose response (AID 651818); assay type: functional;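 further: compounds incubated with infected cells for about four days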
[21] = T. cruzi intracellular amastigote growth inhibition, dose response, imaging, CA-I/72 strain, bovine embryo skeletal muscle, dry powder (AID 651885); assay type: functional, cell-based
[22] = cytotoxicity in L-6 rat myocytes, dose response, cytotoxicity control, cell-based, plate reader, cherry-pick (AID 651896); assay type: functional
[23] = T. cruzi growth inhibition in host cells, dose response, cell-based, plate reader, dry powder, set 2 (AID 652275); assay type: functional
[24] = L. donovani amastigote growth inhibition, dose response, axenic amastigotes, plate reader, cherry pick (AID 651891); assay type: functional, cell-based; conditions: Leishmania donovani
Paired box protein Pax-8 = Paired box protein Pax-8 (Homo sapiens, UniProt Q06710); assay: inhibitors of PAX8-driven TPO luciferase reporter, dose response, RMG-I cells, cherry-pick (AID 687027); assay type: functional, cell-based;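 further: luciferase reporter driven by Pax8 target thyroperoxidase promoter measured by SteadyGlo luminescence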
Paired box protein Pax-8, sequence (Q06710 whole entry): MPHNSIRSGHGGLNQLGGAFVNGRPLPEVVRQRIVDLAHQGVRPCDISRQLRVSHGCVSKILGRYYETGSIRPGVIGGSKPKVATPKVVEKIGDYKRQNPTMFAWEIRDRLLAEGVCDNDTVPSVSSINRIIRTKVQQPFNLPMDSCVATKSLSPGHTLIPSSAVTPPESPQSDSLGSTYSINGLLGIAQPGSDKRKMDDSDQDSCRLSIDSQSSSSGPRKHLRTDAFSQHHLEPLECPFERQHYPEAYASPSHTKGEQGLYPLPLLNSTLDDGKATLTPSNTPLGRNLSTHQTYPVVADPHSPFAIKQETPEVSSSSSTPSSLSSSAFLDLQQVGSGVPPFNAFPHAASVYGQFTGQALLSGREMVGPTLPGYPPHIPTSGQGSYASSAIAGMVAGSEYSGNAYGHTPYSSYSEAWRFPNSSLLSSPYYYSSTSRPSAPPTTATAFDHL

[25] = IGROV1 ovarian cancer cell cytotoxicity, dose response, PAX8 inhibitor project, plate reader, dry powder samples (AID 743043); assay type: functional, cell-based; conditions: IGROV-1
[26] = NIH:OVCAR-3 ovarian cancer cell cytotoxicity, dose response, PAX8 inhibitor project, plate reader, dry powder samples (AID 743044); assay type: functional, cell-based
[27] = cytotoxicity in OVCAR8 ovarian cancer cells, dose response, PAX8 project, cell-based, plate reader, dry powder samples (AID 743197); assay type: functional; conditions: OVCAR-8
[28] = IOSE-T80 ovarian epithelial cell cytotoxicity, dose response, cytotoxicity control for PAX8 inhibitor project, plate reader, dry powder samples (AID 743045); assay type: functional, cell-based
[29] = HepG2 cell cytotoxicity, dose response, cytotoxicity control, plate reader, cherry-pick, antagonist series (AID 743416); assay type: functional, cell-based
[30] = A549 cell cytotoxicity, dose response, cytotoxicity control, plate reader, cherry-pick, antagonist series (AID 743412); assay type: functional, cell-based
[31] = LGR2 antagonists, dose response, cell-based, HEK293, CRE-luciferase reporter, cherry pick, set 2 (AID 743343); assay type: functional;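 further: transfected cells were stimulated with diluted bursicon conditioned medium after compound addition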
[32] = MC4R antagonists, dose response, counter-screen for LGR2 antagonist project, cell-based, plate reader, cherry pick (AID 743444); assay type: functional;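 further: transfected HEK 293 cells stimulated with alpha-MSH peptide; potency of inhibitors of the alpha-MSH evoked signal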
[33] = Luminescence-based cell-based high throughput dose response assay to identify activators of the DAF-12 from the parasite S. stercoralis (ssDAF-12).; assay type: functional
[34] = HepG2 cell cytotoxicity, dose response, cytotoxicity control, ATP luminescence, cherry-pick, activator set 2 (AID 1053143); assay type: functional, cell-based
Protein skinhead-1 = biological target: T2, Protein skinhead-1 (Caenorhabditis elegans, UniProt P34707); assay type: functional
T2 sequence (P34707 whole entry): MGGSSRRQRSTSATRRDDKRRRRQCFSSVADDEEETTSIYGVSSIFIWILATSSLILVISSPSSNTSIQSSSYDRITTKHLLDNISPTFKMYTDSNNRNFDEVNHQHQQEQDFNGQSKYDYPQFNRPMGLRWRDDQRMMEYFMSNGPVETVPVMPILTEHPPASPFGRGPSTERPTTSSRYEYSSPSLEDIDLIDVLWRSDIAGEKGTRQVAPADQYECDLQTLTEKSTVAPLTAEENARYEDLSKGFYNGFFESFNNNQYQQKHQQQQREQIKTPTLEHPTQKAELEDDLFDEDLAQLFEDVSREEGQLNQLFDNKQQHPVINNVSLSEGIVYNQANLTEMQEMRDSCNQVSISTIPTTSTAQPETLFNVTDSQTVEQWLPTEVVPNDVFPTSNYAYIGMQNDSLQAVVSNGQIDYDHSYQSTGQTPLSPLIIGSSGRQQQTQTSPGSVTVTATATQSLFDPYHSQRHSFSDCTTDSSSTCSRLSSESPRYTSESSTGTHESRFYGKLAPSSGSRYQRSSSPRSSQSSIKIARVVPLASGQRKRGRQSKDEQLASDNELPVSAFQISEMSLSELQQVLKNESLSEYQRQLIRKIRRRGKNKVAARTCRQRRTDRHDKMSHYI

AC50 (Caspase-6): 13.5 µM (active)
SMILES: O=C(OC1CCOC1=O)c1ccc(Cl)c(S(=O)(=O)N2CCOCC2)c1 (stereo not drawn)

SMILES: O=C(CCCn1c(=S)[nH]c2cc3c(cc2c1=O)OCO3)N1CCN(c2ccc(Cl)cc2)CC1
IC50 (HEK293 [1]): 8.75 µM (active) | EC50 [2]: 3.83 µM (active) | IC50 (Estrogen receptor): 12.6 µM (active) | AC50 [3]: > 70 µM (inactive) | AC50 [4]: 5.45 µM (active) | AC50 [5]: 44.3 µM (active) | AC50 [6]: 5.71 µM (active) and 5.84 µM (active) | IC50 (HEK293 [7]): 6.5 µM (active) | AC50 [8]: 2.75 µM (active) | IC50 (HEK293 [9]): > 20 µM (inactive) | AC50 [10]: 7.01 µM (active) | IC50 (HEK293 [11]): 16.4 µM (active) | EC50 (HEK293 [12]): 7.73 µM (active)

SMILES: COc1ccc(-n2c(/C=C/c3ccc4c(c3)OCO4)nc3ccccc3c2=O)cc1
AC50 [13]: > 30 µM (inactive)

SMILES: CCOC(=O)COc1cccc2c(=O)n(CC(=O)NCc3ccccc3)ccc12
AC50 [14]: > 30 µM (inactive) | IC50 [15]: > 80 µM (inactive)

SMILES: C[C@H]1CN([C@@H](C)CO)C(=O)c2cccc(NC(=O)c3ccncc3)c2O[C@@H]1CN(C)Cc1ccccc1
IC50 [16]: 4.83 µM (inactive) | IC50 [17]: 35.1 µM (inactive) | IC50 [18]: 4.83 µM (inactive) | AC50 [19]: 12.3 nM (active) | AC50 [20]: 80 nM (active) | IC50 [21]: 9.42 nM (active) | IC50 [22]: > 100 µM (inactive) | AC50 [23]: 12.3 nM (active) | IC50 [24]: 84.4 µM (inactive)

SMILES: Cc1ccc(S(=O)(=O)Nc2ccc3c(c2)C(=O)N([C@H](C)CO)C[C@H](C)[C@@H](CN(C)Cc2ccc(C(F)(F)F)cc2)OCCCC[C@H](C)O3)cc1
AC50 (Paired box protein Pax-8): 4.62 µM (active) | AC50 [25]: 15 µM (active) | AC50 [26]: 10.3 µM (active) | AC50 [27]: 16.6 µM (active) | AC50 [28]: 18.1 µM (active)

SMILES: Cc1cc(-c2nc3cc(F)ccc3s2)ccc1N
AC50 [29]: 82.4 nM (active) | AC50 [30]: 21.4 µM (active) | AC50 [31]: 3.96 µM (active) | AC50 [32]: 3.8 µM (active) | IC50 [33]: > 67.6 µM (inactive) | AC50 [34]: 550 nM (active) | IC50 (Protein skinhead-1): 19.1 µM (active)
